Results published in paper PMC4312240 (Bioorganic & medicinal chemistry, 2014).

Assays:
HBV [1] = experiment: Anti-HBV activity in HepG2 cells; assay type: cell-based; conditions: for Anti-HBV potency compared with DAPD prodrug 5: comparison in words
HBV [2] = conditions: in words; cited from earlier work
HIV = conditions: in words; cited from earlier work

Question: With “(2S)-Ethyl 2-(((((2R,4R)-4-(2-amino-6-palmitamido-9H-purin-9-yl)-1,3-dioxolan-2-yl)methoxy)(phenoxy)phosphoryl)amino)propanoate [Compound 10h]” as the substance, how does the “Anti-HBV potency compared with DAPD prodrug 5” value (HBV [1]) read?
Answer: Its value is “in the same range as DAPD prodrug 5”.

Question: Which “Anti-HBV potency compared with DAPD prodrug 5” value (HBV [1]) does the source give for “(2S)-Ethyl 2-(((((2R,4R)-4-(2-amino-6-tetradecanamido-9H-purin-9-yl)-1,3-dioxolan-2-yl)methoxy)(phenoxy)phosphoryl)amino)propanoate [Compound 10g]” here?
Answer: Its value is “in the same range as DAPD prodrug 5”.

Question: With “(2S)-ethyl 2-(((((2R,4R)-4-(2-amino-6-hydroxy-9H-purin-9-yl)-1,3-dioxolan-2-yl)methoxy)(phenoxy)phosphoryl)amino)propanoate [Compound 5]” as the substance, how does the “Factor of increase in potency against HBV compared with DAPD” value (HBV [1]; ratio of EC50 values, DAPD vs prodrug) read?
Answer: Its value is 40.

Question: Which “Activity against HBV” value (HBV [2]) does the source give for “(−)-β-D-(2R,4R)-1,3-dioxolane-2-amino-6-aminopropyl purine nucleoside phosphoramidate prodrug [Compound 4]” here?
Answer: Its value is “submicromolar”.

Question: What about the “Activity against HIV” value (HIV) of the same substance?
Answer: Its value is “submicromolar”.
